Source: PubChem BioAssay (NCI)
“And” between values parts separate entries of the source, which are not always exact repeats. Equal values may be shown once.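 Cells were grown in 96-well plates and exposed to each compound for 48 hours at five concentrations; endpoints were interpolated linearly between bracketing concentrations, or set to the highest concentration if not reached. Abbreviation: GI50, concentration required for 50% inhibition of growth. Definition used: TGI = concentration required for complete inhibition of growth.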

Assays:
Experiment in all cases: DTP human tumour cell line panel, 48 h
A549 NSCLC = system: A549 NSCLC
IGROV1 ovarian = system: IGROV1 ovarian
OVCAR-4 ovarian = system: OVCAR-4 ovarian
OVCAR-3 ovarian = system: OVCAR-3 ovarian
BT-549 breast = system: BT-549 breast
K-562 leukemia = system: K-562 leukemia
SF-539 CNS = system: SF-539 CNS
SW-620 colon = system: SW-620 colon
NCI-H23 lung = system: NCI-H23 lung
HCC-2998 colon = system: HCC-2998 colon

Row | Structure (SMILES) | TGI (A549 NSCLC) [µM] | TGI (IGROV1 ovarian) [µM] | TGI (OVCAR-4 ovarian) [µM] | TGI (OVCAR-3 ovarian) [µM] | TGI (BT-549 breast) [µM] | TGI (K-562 leukemia) [µM] | TGI (SF-539 CNS) | TGI (SW-620 colon) [µM] | TGI (NCI-H23 lung) [µM] | TGI (HCC-2998 colon) | GI50 (A549 NSCLC) [µM] | GI50 (IGROV1 ovarian) | GI50 (OVCAR-4 ovarian) | GI50 (OVCAR-3 ovarian) | GI50 (BT-549 breast) [µM] | GI50 (K-562 leukemia) | GI50 (SF-539 CNS) [µM] | GI50 (SW-620 colon) | GI50 (NCI-H23 lung) | GI50 (HCC-2998 colon)
1 | N#C/C(=C\Nc1ccccn1)C(=O)c1ccco1 | > 100 | > 100 | > 100 | > 100 | > 100 | > 100 | > 100 µM | > 100 | > 100 | > 100 µM | – | – | – | – | – | – | – | – | – | –
2 | O=C(O)c1ccc([S-])cc1.[Au+].c1ccc(CN2[CH-]N(Cc3ccccc3)C(c3ccccc3)=C2c2ccccc2)cc1 | 1.63 | 2.15 | 1.3 | 1.28 | 1.42 | 1.67 | 1.78 µM | 1.93 | 1.21 | 1.88 µM | 0.358 | 0.541 µM | 0.373 µM | 0.373 µM | 0.318 | 0.33 µM | 0.505 | 0.418 µM | 0.314 µM | 0.536 µM
3 | O=C(/C=C/c1cccc([N+](=O)[O-])c1)c1ccc(O)c(CN2CCN(c3cc4c(cc3F)c(=O)c(C(=O)O)cn4C3CC3)CC2)c1 | 17.2 | – | 3.07 | 3.41 | 3.31 | > 100 | 2.47 µM | 3.65 | 3.83 | 3.43 µM | 3.1 | – | 1.61 µM | 1.77 µM | 1.54 | 0.404 µM | 1.19 | 1.1 µM | 1.81 µM | 1.92 µM
4 | Cc1cccc(Cl)c1NC(=O)c1cnc(Nc2cc(N3CCOCC3)cc(N3CCOCC3)c2)s1 | > 10 | 0.0621 | > 10 | > 10 | > 10 | > 10 | > 6.8 µM | > 10 | > 10 | > 10 µM | 0.158 | 0.00355 µM | > 4.05 µM | 0.0644 µM | > 4.46 | 0.00147 µM | 0.0366 | > 6.79 µM | > 9.24 µM | > 4.21 µM
5 | CCN(CC)CCCC(C)Nc1c2ccc(Cl)cc2nc2cc(OC)c(OC)cc12 (stereo not drawn) | 4.56 | 9.96 | 3.33 | 7.63 | 17.8 | 8.77 | 3.19 µM | 7.54 | 3.25 | 3 µM | 1.85 | 2.15 µM | 1.34 µM | 1.98 µM | 3.87 | 2.4 µM | 1.64 | 1.35 µM | 1.48 µM | 1.49 µM
6 | COc1ccc(SC2c3ccc(C)cc3Oc3nc(N)c(C#N)c(N)c32)cc1 (stereo not drawn) | 4.21 | – | 3.15 | 3.13 | 2.9 | 8.44 | 3 µM | 4.08 | 3.31 | 3.19 µM | 2.19 | – | 1.66 µM | 1.75 µM | 1.56 | 2.66 µM | 1.64 | 1.95 µM | 1.67 µM | 1.73 µM
7 | COc1cc2c(cc1OC)-c1ccc3cc4c(cc3c1N(CCN(C)C)C2)OCO4 | 2.13 | 3.25 | 13.3 | 2.28 | 11.9 | 1.57 | 2.53 µM | 2.58 | 2.96 | 2.87 µM | 0.694 | 0.943 µM | 0.911 µM | 0.593 µM | 1.15 | 0.262 µM | 0.352 | 0.522 µM | 0.393 µM | 1.29 µM
8 | c1ccc(Nn2c(CCCCCCCCc3nnc(COc4ccccc4)n3Nc3ccccc3)nnc2COc2ccccc2)cc1 | – | > 300 | > 300 | > 300 | > 300 | > 300 | > 60.5 µM and 20 µM | > 300 | > 300 | > 72.6 µM and 186 µM | – | 17.7 µM and 46 µM | 25.8 µM and 88.1 µM | 16.5 µM and 41.2 µM | 33 | 3.71 µM and 2.17 µM | 7.23 | 9.55 µM and 11.8 µM | 37.2 µM and 76.8 µM | 16.2 µM and 15.7 µM
9 | Clc1ccc(C(c2ccc(Cl)cc2)N2CCNCC2)cc1 | 8.4 | 3.17 | 6.95 | 4.13 | 38.3 | 3.76 | 3.02 µM | 4.96 | 21.6 | 3.05 µM | – | – | – | – | – | – | – | – | – | –
10 | CN1C(=O)C(=Cc2cn(Cc3ccccc3)c3ccccc23)C(=O)N(C)C1=O | > 100 | – | > 100 | > 100 | > 100 | > 100 | > 100 µM | > 100 | > 100 | > 70.8 µM | > 39.7 | 1.64 µM | 5.85 µM | 20.8 µM | 56.5 | 5.08 µM | 47.3 | > 92.4 µM | 44.2 µM | > 33.7 µM
11 | Cn1c(/C=C(\C#N)c2cccc(C(F)(F)F)c2)nc2c(N3CCOCC3)nc(Cl)nc21 | 3.3 | 1.89 | 2.41 | 1.87 | 1.96 | 4.03 | 2.52 µM | 1.4 | 3.18 | 3.2 µM | 1.31 | 0.556 µM | 1 µM | 0.665 µM | 0.569 | 0.344 µM | 1.25 | 0.377 µM | 1.49 µM | 1.67 µM
12 | CC(=O)OCc1ccc(O)c(C=O)c1 | > 100 | > 100 | > 100 | > 100 | > 100 | > 100 | > 100 µM | > 100 | > 100 | > 100 µM | – | – | – | – | – | – | – | – | – | –
13 | COc1cc2c(cc1OC)C(CC1(O)CCCCC1)N(S(=O)(=O)c1ccc(C)cc1)CC2 (stereo not drawn) | > 10 | > 10 | > 10 | > 10 | > 10 | > 10 | > 10 µM | > 10 | > 10 | > 10 µM | > 10 | > 10 µM | > 10 µM | > 10 µM | > 10 | > 10 µM | > 10 | > 10 µM | > 10 µM | > 10 µM
